Measurements published in the NIST ThermoML archive (doi:10.1016/j.tca.2011.08.021).
“And” between values parts separate entries of the source, which are not always exact repeats. Equal values may be shown once. Numbers after ± are expanded uncertainties.

Tests used:
[1] = molar heat capacity at constant pressure; conditions: 101.33 kPa, Crystal, Small sample (50 mg) DSC
[2] = 393 K; 101.33 kPa; Crystal; X-ray diffraction

[Nd+3].[Nd+3].[O-2].[O-2].[O-2].[O-2].[O-2].[O-2].[O-2].[Zr+4].[Zr+4] [dineodymium(III) dizirconium(IV) oxide]
molar heat capacity at constant pressure ([1]; 293 K): 236.67 ± 4.7 J/K/mol | molar heat capacity at constant pressure ([1]; 303 K): 238.41 ± 4.8 J/K/mol | molar heat capacity at constant pressure ([1]; 313 K): 240.75 ± 4.8 J/K/mol | molar heat capacity at constant pressure ([1]; 573 K): 275.35 ± 5.5 J/K/mol | molar heat capacity at constant pressure ([1]; 623 K): 280.65 ± 5.6 J/K/mol | molar heat capacity at constant pressure ([1]; 673 K): 284.79 ± 5.7 J/K/mol | molar heat capacity at constant pressure ([1]; 723 K): 288.11 ± 5.8 J/K/mol | molar heat capacity at constant pressure ([1]; 773 K): 290.8 ± 5.8 J/K/mol | molar heat capacity at constant pressure ([1]; 823 K): 293.01 ± 5.9 J/K/mol | molar heat capacity at constant pressure ([1]; 873 K): 294.85 ± 5.9 J/K/mol | molar heat capacity at constant pressure ([1]; 923 K): 296.39 ± 5.9 J/K/mol | molar heat capacity at constant pressure ([1]; 973 K): 297.7 ± 6 J/K/mol | molar heat capacity at constant pressure ([1]; 1023 K): 298.83 ± 6 J/K/mol | molar heat capacity at constant pressure ([1]; 1073 K): 299.79 ± 6 J/K/mol | molar heat capacity at constant pressure ([1]; 1123 K): 300.63 ± 6 J/K/mol and 302 ± 6 J/K/mol | molar heat capacity at constant pressure ([1]; 1173 K): 301.36 ± 6 J/K/mol | molar heat capacity at constant pressure ([1]; 1273 K): 302.57 ± 6.1 J/K/mol | molar heat capacity at constant pressure ([1]; 1323 K): 303.07 ± 6.1 J/K/mol | molar heat capacity at constant pressure ([1]; 1373 K): 303.52 ± 6.1 J/K/mol | mass density [2]: 6411 ± 44 kg/m3
